Assay results reported in patent US20030135023A1, “Peptide structures useful for competitive modulation of dipeptidyl peptidase IV catalysis” (priority 2001, published 2003).
Square brackets hold non-standard residues; d marks the D form. Peptide text beside a SMILES is read from it. Tle = CC(C)(C)[C@H](N)C(=O)O

Target: purified porcine DP IV (Sus scrofa, UniProt P22411)
Assay: Determination of Ki-values, Gly-Pro-pNA cleavage by DP IV
Format: biochemical
Settings: Gly-Pro-pNA 0.05-0.4 mM
Description: 100 μl inhibitor stock solution were mixed with 100 μl buffer (HEPES pH 7.6) and 50 μl substrate (Gly-Pro-pNA, final concentration 0.4 mM) and preincubated at 30° C. Reaction was started by addition of 20 μl purified porcine DP IV. Formation of the product pNA was measured at 405 nm over 10 min using the HTS 7000 Plus plate reader (Perkin Elmer) and slopes were calculated. The final inhibitor concentrations ranged between 1 mM and 30 nM.
Calculations were performed using the GraFit Software.

purified porcine DP IV, sequence (P22411 whole entry): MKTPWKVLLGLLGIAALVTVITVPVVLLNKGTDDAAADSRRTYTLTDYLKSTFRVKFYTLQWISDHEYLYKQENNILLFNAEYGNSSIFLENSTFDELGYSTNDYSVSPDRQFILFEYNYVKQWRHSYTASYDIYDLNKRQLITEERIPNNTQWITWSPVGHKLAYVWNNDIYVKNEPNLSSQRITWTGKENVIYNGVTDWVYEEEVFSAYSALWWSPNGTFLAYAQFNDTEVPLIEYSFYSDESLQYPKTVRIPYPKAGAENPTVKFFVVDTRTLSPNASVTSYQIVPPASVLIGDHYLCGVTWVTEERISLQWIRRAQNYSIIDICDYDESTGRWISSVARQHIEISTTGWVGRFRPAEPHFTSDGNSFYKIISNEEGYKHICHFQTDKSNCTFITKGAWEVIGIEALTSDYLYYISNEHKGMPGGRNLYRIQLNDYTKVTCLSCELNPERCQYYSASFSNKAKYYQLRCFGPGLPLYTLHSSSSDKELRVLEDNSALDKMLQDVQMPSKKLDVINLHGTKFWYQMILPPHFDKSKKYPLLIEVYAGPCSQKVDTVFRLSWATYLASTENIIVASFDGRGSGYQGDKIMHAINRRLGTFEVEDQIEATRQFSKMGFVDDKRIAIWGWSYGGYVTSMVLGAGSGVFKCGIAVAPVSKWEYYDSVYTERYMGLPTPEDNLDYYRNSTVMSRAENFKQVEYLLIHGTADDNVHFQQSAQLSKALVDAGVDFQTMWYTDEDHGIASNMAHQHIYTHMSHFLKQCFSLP

A Ki of 3.1 µM was found for `CC[C@H](C)[C@H](NC(=O)[C@@H]1CCCN1C(=O)[C@@H](N)C(C)(C)C)C(=O)O` [t-butyl-Gly-Pro-Ile] (H-[Tle]-Pro-Ile-OH; N-terminus and C-terminus assumed) in this work.
